Experimental data reported in patent US20140088306A1, “RADIOACTIVE FLUORINE-LABELED QUINOXALINE COMPOUND” (Nihon Medi-Physics Co., Ltd., priority 2012, published 2014).
Values belong to the compound of their own block, whether it stands above or below them.

Assays:
[1] = target: T1, Aβ1-42 aggregates (Homo sapiens, UniProt P05067); assay: Binding evaluation using Aβ peptide aggregation in solution (Example 13); conditions: for Ki: inhibition of [^125I]IMPY binding to Aβ1-42 aggregates, value following ± shows SE, read-out: Kl
T1 construct: Aβ1-42 aggregates (Peptide Institute, Inc, Osaka) were dissolved in 0.1 mol/L phosphate-buffered saline; purchased Peptide Institute, Inc., Osaka
Description: Aβ1-42 peptide (Peptide Institute, Inc., Osaka) was gently dissolved at a concentration of 0.25 mg/mL in a PBS solution (pH 7.4), which was then incubated at 37° C. for 42 hours to prepare an Aβ1-42 aggregate PBS solution.
Thereafter, the resultant was filtered through Whatman (R) GF/B filter using a Brandell M-24 cell harvester, and the radioactivity of the filter was measured using a γ counter (Wallac 1470 Wizard, from Perkin-Elmer).
The half inhibition concentration (IC50) value was determined from a replacement straight line using GraphPad Prism 5.0, and the inhibition constant (Ki) was calculated using the Cheng-Prusoff equation: the above-described Expression (1).

[2] = tested on: amyloid plaques; assay: Autoradiography using postmortem brain section of patient with Alzheimer's disease (Example 7); format: binding, human (Alzheimer's disease patient); conditions: brain section (temporal lobe) of Alzheimer's disease patient; 0.37 MBq/100 μL, 1 hour
Description: A postmortem autopsy brain section (temporal lobe) of a patient with Alzheimer's disease was incubated together with each of [^18F]E3, [^18F]D3, [^18F]E1, and [^18F]E2 (0.37 MBq/100 μL each) at room temperature for 1 hour. The resultant was washed with a 50 volume % ethanol aqueous solution (2 minutes×2) and water (2 minutes×2), and after drying, the section was contacted with BAS imaging plate (from Fujifilm Corporation) for 1.5 hours. The image of autoradiography was obtained using BAS5000 scanner system (from Fujifilm Corporation).
A section adjacent to the brain section used was immunostained in the following manner.
First, a paraffin-embedded brain section of the Alzheimer's disease patient (temporal lobe, 6 μm in thickness) was incubated with xylene (15 minutes×2), ethanol (1 minute×2), a 90 volume % ethanol aqueous solution (1 minute×2), and a 70 volume % ethanol aqueous solution (1 minute×1) in that order for complete deparaffinization, and then washed in water (2.5 minutes×2). Thereafter, the section was subjected to autoclave treatment for 15 minutes in 0.01 mol/L citrate buffer solution (pH 6.0). The resultant was incubated in PBS-Tween20 (5 minutes×2), and a mouse anti-Aβ1-42 primary monoclonal antibody (from Wako Pure Chemical Industries Ltd.) was then added thereto, which was then incubated at room temperature overnight. The resultant was incubated in PBS-Tween20 (2 minutes×3), and a biotin-goat anti-mouse IgG (from Funakoshi Co., Ltd.) was then added thereto, which was then incubated at room temperature for 1 hour. The resultant was incubated in PBS-Tween20 (5 minutes×3), and a streptavidin-peroxidase complex (from Funakoshi Co., Ltd.) was added thereto, which was then incubated at room temperature for 30 minutes. In addition, the resultant was incubated in PBS-Tween20 (2 minutes×3); 3,3′-diaminobenzidine was added thereto, which was then incubated at room temperature for 30 minutes; and after washing with water, the section was observed under a microscope to provide an immunostained image (FIG. 10).

[3] = In vivo radioactivity distribution experiment (Example 8); conditions: ddY mice, tail vein, SD in parenthesis
Description: Through the tail vein of ddY mice (male, 5 week-old) was injected each of a 10 volume % ethanol-containing saline solution of [^18F]E3 (45.4 kBq, 100 μL), a 10 volume % ethanol-containing saline solution of [^18F]D3 (38.2 kBq, 100 μL), a 10 volume % ethanol-containing saline solution of [^18F]E1 (45.1 kBq, 100 μL), and a 10 volume % ethanol-containing saline solution of [^18F]E2 (40.6 kBq, 100 μL). Five mice were used for each group and sacrificed 2, 10, 30, and 60 minutes after administration to remove major organs. The blood and organs were weighed and further measured for radioactivity using a γ counter. The amount of radioactivity per unit mass was measured in each organ to evaluate radioactivity distribution.

T1 sequence (P05067 672-713 limits assumed): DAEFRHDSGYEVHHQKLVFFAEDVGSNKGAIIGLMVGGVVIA

Ki [1]: 242 ± 29 nM
Structure (SMILES): Nc1ccc(-c2cnc3cc(OCCF)ccc3n2)cc1 [Compound D1, 4-(6-(2-Fluoroethoxy)quinoxalin-2-yl)aniline]

Structure (SMILES): CNc1ccc(-c2cnc3cc(OCCF)ccc3n2)cc1 [Compound D2, 4-(6-(2-Fluoroethoxy)quinoxalin-2-yl)-N-methylaniline]
binding affinity relative to D1 ([1]; Ki of D2 compared with D1): ≥ 10 times
Ki [1]: 15.7 ± 1.28 nM

Structure (SMILES): CNc1ccc(-c2cnc3ccc(OCC[18F])cc3n2)cc1 [[^18F]E2, 4-(7-(2-[^18F]Fluoroethoxy)quinoxalin-2-yl)-N-methylaniline]
visualization of gray matter / amyloid plaques by autoradiography [2]: did not visualize the gray matter but rather strongly visualized the white matter
Radioactivity Amount, Blood ([3]; 2 min. after): 3.37 (0.46) % injected dose/g
Radioactivity Amount, Blood ([3]; 10 min. after): 3.83 (1.24) % injected dose/g
Radioactivity Amount, Blood ([3]; 30 min. after): 3.10 (0.34) % injected dose/g
Radioactivity Amount, Blood ([3]; 60 min. after): 3.40 (0.32) % injected dose/g
Radioactivity Amount, Bone ([3]; 2 min. after): 1.86 (0.53) % injected dose/g
Radioactivity Amount, Bone ([3]; 10 min. after): 1.91 (0.54) % injected dose/g
Radioactivity Amount, Bone ([3]; 30 min. after): 2.07 (3.97) % injected dose/g
Radioactivity Amount, Bone ([3]; 60 min. after): 2.36 (1.16) % injected dose/g
Radioactivity Amount, Brain ([3]; 2 min. after): 5.96 (0.48) % injected dose/g
Radioactivity Amount, Brain ([3]; 10 min. after): 3.77 (0.40) % injected dose/g
Radioactivity Amount, Brain ([3]; 30 min. after): 2.18 (0.22) % injected dose/g
Radioactivity Amount, Brain ([3]; 60 min. after): 1.91 (0.15) % injected dose/g
Radioactivity Amount, Heart ([3]; 2 min. after): 7.42 (0.53) % injected dose/g
Radioactivity Amount, Heart ([3]; 10 min. after): 4.41 (0.17) % injected dose/g
Radioactivity Amount, Heart ([3]; 30 min. after): 8.53 (12.0) % injected dose/g
Radioactivity Amount, Heart ([3]; 60 min. after): 3.92 (0.64) % injected dose/g
Radioactivity Amount, Intestine ([3]; 2 min. after): 3.46 (0.75) % injected dose/g
Radioactivity Amount, Intestine ([3]; 10 min. after): 12.5 (2.77) % injected dose/g
Radioactivity Amount, Intestine ([3]; 30 min. after): 20.3 (2.55) % injected dose/g
Radioactivity Amount, Intestine ([3]; 60 min. after): 22.1 (2.95) % injected dose/g
Radioactivity Amount, Kidney ([3]; 2 min. after): 11.8 (2.51) % injected dose/g
Radioactivity Amount, Kidney ([3]; 10 min. after): 7.55 (0.36) % injected dose/g
Radioactivity Amount, Kidney ([3]; 30 min. after): 3.92 (0.45) % injected dose/g
Radioactivity Amount, Kidney ([3]; 60 min. after): 3.12 (0.41) % injected dose/g
Radioactivity Amount, Liver ([3]; 2 min. after): 6.84 (1.50) % injected dose/g
Radioactivity Amount, Liver ([3]; 10 min. after): 11.7 (0.58) % injected dose/g
Radioactivity Amount, Liver ([3]; 30 min. after): 7.95 (1.32) % injected dose/g
Radioactivity Amount, Liver ([3]; 60 min. after): 6.95 (0.68) % injected dose/g
Radioactivity Amount, Lung ([3]; 2 min. after): 6.71 (0.24) % injected dose/g
Radioactivity Amount, Lung ([3]; 10 min. after): 4.98 (0.56) % injected dose/g
Radioactivity Amount, Lung ([3]; 30 min. after): 3.34 (0.55) % injected dose/g
Radioactivity Amount, Lung ([3]; 60 min. after): 4.06 (0.99) % injected dose/g
Radioactivity Amount, Pancreas ([3]; 2 min. after): 5.42 (0.13) % injected dose/g
Radioactivity Amount, Pancreas ([3]; 10 min. after): 4.91 (0.95) % injected dose/g
Radioactivity Amount, Pancreas ([3]; 30 min. after): 2.60 (0.25) % injected dose/g
Radioactivity Amount, Pancreas ([3]; 60 min. after): 2.73 (0.31) % injected dose/g
Radioactivity Amount, Spleen ([3]; 2 min. after): 2.71 (0.44) % injected dose/g
Radioactivity Amount, Spleen ([3]; 10 min. after): 4.53 (0.62) % injected dose/g
Radioactivity Amount, Spleen ([3]; 30 min. after): 3.33 (0.66) % injected dose/g
Radioactivity Amount, Spleen ([3]; 60 min. after): 3.17 (0.62) % injected dose/g
Radioactivity Amount, Stomach* ([3]; 2 min. after): 1.13 (0.18) % injected dose per organ
Radioactivity Amount, Stomach* ([3]; 10 min. after): 2.11 (0.55) % injected dose per organ
Radioactivity Amount, Stomach* ([3]; 30 min. after): 1.56 (0.34) % injected dose per organ
Radioactivity Amount, Stomach* ([3]; 60 min. after): 2.73 (2.44) % injected dose per organ
